Source: US11492385B2, “Long-acting co-agonists of the glucagon and GLP-1 receptors” (Merck Sharp & Dohme Corp., priority 2015, dated 2022)
Starred links: 1 amine or outer side, 2 acyl side, 3 side chain; linkers in the order of their positions; H or OH if unused. Non-standard residues stand in square brackets, D forms with d. Residues, ends and D or L forms follow the SMILES beside them. Groups on a side chain read outwards from the residue. *: point of attachment. C20 diacid = O=C(O)CCCCCCCCCCCCCCCCCCC(=O)*; Phe(4-CH2NH2) = NCc1ccc(C[C@H](N)C(=O)O)cc1; C18 diacid = O=C(O)CCCCCCCCCCCCCCCCC(=O)*; C16 diacid = O=C(O)CCCCCCCCCCCCCCC(=O)*; γGlu = O=C(O)[C@H](CCC(=O)[*:2])N[*:1]; Met(O2) = CS(=O)(=O)CC[C@H](N)C(=O)O; αMeD = C[C@](N)(CC(=O)O)C(=O)O; AEEA = NCCOCCOCC(=O)O; Aib = CC(C)(N)C(=O)O

Tests used:
[1] = molecular target: T1, human GLP1R (Homo sapiens, UniProt P43220); assay: cAMP activity assay, cells expressing human GLP1R; assay type: cell-based; settings: cAMP production, assay buffer with or without 20% human serum (not stated which)
T1 construct: expressed in transfected cells; kept under Blasticidin and Hygromycin selection
T1 sequence (P43220 24-463): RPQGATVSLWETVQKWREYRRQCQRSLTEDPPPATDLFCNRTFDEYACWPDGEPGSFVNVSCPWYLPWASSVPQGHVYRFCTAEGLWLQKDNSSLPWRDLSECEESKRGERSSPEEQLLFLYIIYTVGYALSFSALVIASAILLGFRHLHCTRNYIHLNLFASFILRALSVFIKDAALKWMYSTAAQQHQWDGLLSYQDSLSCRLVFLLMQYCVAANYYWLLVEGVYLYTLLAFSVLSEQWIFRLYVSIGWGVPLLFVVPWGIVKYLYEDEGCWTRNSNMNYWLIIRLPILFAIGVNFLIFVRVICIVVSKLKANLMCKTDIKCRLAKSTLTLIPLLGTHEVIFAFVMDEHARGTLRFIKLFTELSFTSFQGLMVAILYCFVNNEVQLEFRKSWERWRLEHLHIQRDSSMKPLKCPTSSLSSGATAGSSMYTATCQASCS
Outline: (§1)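 cAMP production in human GLP1R- or GCGR-expressing cells was read by luminescence after overnight dark incubation at room temperature. Peptides were given as 10-point DMSO dilution series, with native GLP-1 and glucagon as references. Four-parameter logistic fitting gave EC50.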

[2] = molecular target: T2, human GCGR (Homo sapiens, UniProt P47871); assay: cAMP activity assay, cells expressing human GCGR; assay type: cell-based; settings: for EC50: cAMP production, cells expressing human GCGR, assay buffer with or without 20% human serum (not stated which), read-out: GCGR EC50 human; for hGCGR/hGLP1R (hTone): ratio of human GCGR EC50 to human GLP1R EC50
T2 construct: expressed in transfected cells; kept under Blasticidin and Hygromycin selection
T2 sequence (P47871 26-477): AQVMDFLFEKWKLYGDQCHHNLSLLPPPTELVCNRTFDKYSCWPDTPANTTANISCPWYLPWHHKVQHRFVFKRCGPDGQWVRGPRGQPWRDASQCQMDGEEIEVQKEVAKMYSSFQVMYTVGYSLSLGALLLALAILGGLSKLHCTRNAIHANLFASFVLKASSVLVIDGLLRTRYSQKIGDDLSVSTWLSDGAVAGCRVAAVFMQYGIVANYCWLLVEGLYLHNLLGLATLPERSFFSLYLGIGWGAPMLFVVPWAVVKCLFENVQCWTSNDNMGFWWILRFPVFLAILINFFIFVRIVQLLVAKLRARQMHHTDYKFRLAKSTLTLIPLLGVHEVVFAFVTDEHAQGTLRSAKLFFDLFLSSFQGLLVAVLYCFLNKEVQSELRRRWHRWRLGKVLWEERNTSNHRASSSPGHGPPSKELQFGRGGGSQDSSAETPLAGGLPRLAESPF
Outline: as §1

CC(C)C[C@H](NC(=O)[C@H](Cc1ccc(O)cc1)NC(=O)[C@H](CCCCN)NC(=O)[C@H](CO)NC(=O)[C@H](Cc1ccc(O)cc1)NC(=O)[C@H](CC(=O)O)NC(=O)[C@H](CO)NC(=O)[C@@H](NC(=O)[C@H](Cc1ccccc1)NC(=O)[C@@H](NC(=O)CNC(=O)[C@H](CCC(N)=O)NC(=O)C(C)(C)NC(=O)[C@@H](N)Cc1c[nH]cn1)[C@@H](C)O)[C@@H](C)O)C(=O)N[C@@H](CC(=O)O)C(=O)N[C@@H](C)C(=O)N[C@@H](CCCNC(=N)N)C(=O)N[C@@H](C)C(=O)N[C@@H](C)C(=O)N[C@@H](CCCCNC(=O)COCCOCCNC(=O)COCCOCCNC(=O)CC[C@H](NC(=O)CCCCCCCCCCCCCCC(=O)O)C(=O)O)C(=O)N[C@@](C)(CC(=O)O)C(=O)N[C@@H](Cc1ccccc1)C(=O)N[C@H](C(=O)N[C@@H](CCC(N)=O)C(=O)N[C@@H](Cc1c[nH]c2ccccc12)C(=O)N[C@@H](CC(C)C)C(=O)N[C@@H](CCS(C)(=O)=O)C(=O)N[C@@H](CC(=O)O)C(=O)N[C@H](C(N)=O)[C@@H](C)O)C(C)C [compound 42] (H-H[Aib]QGTFTSDYSKYLDARAAK([AEEA-AEEA-γGlu-C16 diacid])[αMeD]FVQWL[Met(O2)]DT-NH2)
EC50 [1]: 0.04 nM
EC50 [2]: 0.13 nM
hGCGR/hGLP1R (hTone) [2]: 3.21

CC(C)C[C@H](NC(=O)[C@H](Cc1ccc(O)cc1)NC(=O)[C@H](CCCCN)NC(=O)[C@H](CO)NC(=O)[C@H](Cc1ccc(O)cc1)NC(=O)[C@H](CC(=O)O)NC(=O)[C@H](CO)NC(=O)[C@@H](NC(=O)[C@H](Cc1ccccc1)NC(=O)[C@@H](NC(=O)CNC(=O)[C@H](CCC(N)=O)NC(=O)C(C)(C)NC(=O)[C@@H](N)Cc1c[nH]cn1)[C@@H](C)O)[C@@H](C)O)C(=O)N[C@@H](CC(=O)O)C(=O)N[C@@H](C)C(=O)N[C@@H](CCCNC(=N)N)C(=O)N[C@@H](C)C(=O)N[C@@H](C)C(=O)N[C@@H](CCCCNC(=O)COCCOCCNC(=O)COCCOCCNC(=O)CC[C@H](NC(=O)CCCCCCCCCCCCCCCCCCC(=O)O)C(=O)O)C(=O)N[C@@H](CC(=O)O)C(=O)N[C@@H](Cc1ccccc1)C(=O)N[C@H](C(=O)N[C@@H](CCC(N)=O)C(=O)N[C@@H](Cc1c[nH]c2ccccc12)C(=O)N[C@@H](CC(C)C)C(=O)N[C@@H](CCS(C)(=O)=O)C(=O)N[C@@H](CC(=O)O)C(=O)N[C@H](C(N)=O)[C@@H](C)O)C(C)C [compound 43] (H-H[Aib]QGTFTSDYSKYLDARAAK([AEEA-AEEA-γGlu-C20 diacid])DFVQWL[Met(O2)]DT-NH2; N-terminus assumed)
EC50 [1]: 0.69 nM
EC50 [2]: 0.92 nM
hGCGR/hGLP1R (hTone) [2]: 1.3

CC(C)C[C@H](NC(=O)[C@H](Cc1ccc(O)cc1)NC(=O)[C@H](CCCCN)NC(=O)[C@H](CO)NC(=O)[C@H](CCCCNC(=O)CC[C@H](NC(=O)CC[C@H](NC(=O)CCCCCCCCCCCCCCC(=O)O)C(=O)O)C(=O)O)NC(=O)[C@H](CC(=O)O)NC(=O)[C@H](CO)NC(=O)[C@@H](NC(=O)[C@H](Cc1ccccc1)NC(=O)[C@@H](NC(=O)CNC(=O)[C@H](CCC(N)=O)NC(=O)[C@@H](CO)NC(=O)[C@@H](N)Cc1c[nH]cn1)[C@@H](C)O)[C@@H](C)O)C(=O)N[C@@H](CC(=O)O)C(=O)N[C@@H](CCC(=O)O)C(=O)N[C@@H](CCCNC(=N)N)C(=O)N[C@@H](C)C(=O)N[C@@H](C)C(=O)N[C@@H](CCC(N)=O)C(=O)N[C@@H](CC(=O)O)C(=O)N[C@@H](Cc1ccccc1)C(=O)N[C@H](C(=O)N[C@@H](CCC(N)=O)C(=O)N[C@@H](Cc1c[nH]c2ccccc12)C(=O)N[C@@H](CC(C)C)C(=O)N[C@@H](CC(C)C)C(=O)N[C@@H](CCCCN)C(=O)N[C@H](C(N)=O)[C@@H](C)O)C(C)C [compound 9]
EC50 [1]: 0.67 nM
EC50 [2]: 1.98 nM
hGCGR/hGLP1R (hTone) [2]: 3.22

CC(C)C[C@H](NC(=O)[C@H](Cc1ccc(O)cc1)NC(=O)[C@H](CCCCN)NC(=O)[C@H](CO)NC(=O)[C@H](Cc1ccc(O)cc1)NC(=O)[C@H](CC(=O)O)NC(=O)[C@H](CO)NC(=O)[C@@H](NC(=O)[C@H](Cc1ccccc1)NC(=O)[C@@H](NC(=O)CNC(=O)[C@H](CCC(N)=O)NC(=O)C(C)(C)NC(=O)[C@@H](N)Cc1c[nH]cn1)[C@@H](C)O)[C@@H](C)O)C(=O)N[C@@H](CC(=O)O)C(=O)N[C@@H](CCC(=O)O)C(=O)N[C@@H](CCCNC(=N)N)C(=O)N[C@@H](C)C(=O)N[C@@H](C)C(=O)N[C@@H](Cc1ccc(CNC(=O)COCCOCCNC(=O)COCCOCCNC(=O)CC[C@H](NC(=O)CCCCCCCCCCCCCCC(=O)O)C(=O)O)cc1)C(=O)N[C@@H](CC(=O)O)C(=O)N[C@@H](Cc1ccccc1)C(=O)N[C@H](C(=O)N[C@@H](CCC(N)=O)C(=O)N[C@@H](Cc1c[nH]c2ccccc12)C(=O)N[C@@H](CC(C)C)C(=O)N[C@@H](CC(C)C)C(=O)N[C@@H](CCCCN)C(=O)N[C@H](C(N)=O)[C@@H](C)O)C(C)C [compound 26] (H-H[Aib]QGTFTSDYSKYLDERAA[Phe(4-CH2NH2)]([AEEA-AEEA-γGlu-C16 diacid])DFVQWLLKT-NH2)
EC50 [1]: 0.11 nM
EC50 [2]: 0.52 nM
hGCGR/hGLP1R (hTone) [2]: 4.68

CC(C)C[C@H](NC(=O)[C@H](Cc1ccc(O)cc1)NC(=O)[C@H](CCCCN)NC(=O)[C@H](CO)NC(=O)[C@H](Cc1ccc(O)cc1)NC(=O)[C@H](CC(=O)O)NC(=O)[C@H](CO)NC(=O)[C@@H](NC(=O)[C@H](Cc1ccccc1)NC(=O)[C@@H](NC(=O)CNC(=O)[C@H](CCC(N)=O)NC(=O)[C@@H](CO)NC(=O)[C@@H](N)Cc1c[nH]cn1)[C@@H](C)O)[C@@H](C)O)C(=O)N[C@@H](CC(=O)O)C(=O)N[C@@H](C)C(=O)N[C@@H](CCCNC(=N)N)C(=O)N[C@@H](C)C(=O)N[C@@H](C)C(=O)N[C@@H](CCCCNC(=O)COCCOCCNC(=O)COCCOCCNC(=O)CC[C@H](NC(=O)CCCCCCCCCCCCCCC(=O)O)C(=O)O)C(=O)N[C@@H](CC(=O)O)C(=O)N[C@@H](Cc1ccccc1)C(=O)N[C@H](C(=O)N[C@@H](CCC(N)=O)C(=O)N[C@@H](Cc1c[nH]c2ccccc12)C(=O)N[C@@H](CC(C)C)C(=O)N[C@@H](CC(C)C)C(=O)N[C@@H](CC(=O)O)C(=O)N[C@H](C(N)=O)[C@@H](C)O)C(C)C [compound 2] (H-H[dS]QGTFTSDYSKYLDARAAK([AEEA-AEEA-γGlu-C16 diacid])DFVQWLLDT-NH2; N-terminus assumed)
EC50 [1]: 0.274 nM
EC50 [2]: 0.03 nM
hGCGR/hGLP1R (hTone) [2]: 0.11

CC(C)C[C@H](NC(=O)[C@H](Cc1ccc(O)cc1)NC(=O)[C@H](CCCCN)NC(=O)[C@H](CO)NC(=O)[C@H](Cc1ccc(O)cc1)NC(=O)[C@H](CC(=O)O)NC(=O)[C@H](CO)NC(=O)[C@@H](NC(=O)[C@H](Cc1ccccc1)NC(=O)[C@@H](NC(=O)CNC(=O)[C@H](CCC(N)=O)NC(=O)C(C)(C)NC(=O)[C@@H](N)Cc1c[nH]cn1)[C@@H](C)O)[C@@H](C)O)C(=O)N[C@@H](CC(=O)O)C(=O)N[C@@H](C)C(=O)N[C@@H](CCCNC(=N)N)C(=O)N[C@@H](C)C(=O)N[C@@H](C)C(=O)N[C@@H](Cc1ccc(CNC(=O)COCCOCCNC(=O)COCCOCCNC(=O)CC[C@H](NC(=O)CCCCCCCCCCCCCCCCC(=O)O)C(=O)O)cc1)C(=O)N[C@@H](CC(=O)O)C(=O)N[C@@H](Cc1ccccc1)C(=O)N[C@H](C(=O)N[C@@H](CCC(N)=O)C(=O)N[C@@H](Cc1c[nH]c2ccccc12)C(=O)N[C@@H](CC(C)C)C(=O)N[C@@H](CC(C)C)C(=O)N[C@@H](CC(=O)O)C(=O)N[C@H](C(N)=O)[C@@H](C)O)C(C)C [compound 31] (H-H[Aib]QGTFTSDYSKYLDARAA[Phe(4-CH2NH2)]([AEEA-AEEA-γGlu-C18 diacid])DFVQWLLDT-NH2)
EC50 [1]: 0.37 nM
EC50 [2]: 0.26 nM
hGCGR/hGLP1R (hTone) [2]: 0.70

CC(C)C[C@H](NC(=O)[C@H](Cc1ccc(O)cc1)NC(=O)[C@H](CCCCN)NC(=O)[C@H](CO)NC(=O)[C@H](Cc1ccc(O)cc1)NC(=O)[C@H](CC(=O)O)NC(=O)[C@H](CO)NC(=O)[C@@H](NC(=O)[C@H](Cc1ccccc1)NC(=O)[C@@H](NC(=O)CNC(=O)[C@H](CCC(N)=O)NC(=O)C(C)(C)NC(=O)[C@@H](N)Cc1c[nH]cn1)[C@@H](C)O)[C@@H](C)O)C(=O)N[C@@H](CC(=O)O)C(=O)N[C@@H](C)C(=O)N[C@@H](CCCNC(=N)N)C(=O)N[C@@H](C)C(=O)N[C@@H](C)C(=O)N[C@@H](CCCCNC(=O)COCCOCCNC(=O)COCCOCCNC(=O)CC[C@H](NC(=O)CCCCCCCCCCCCCCCCC(=O)O)C(=O)O)C(=O)N[C@@H](CC(=O)O)C(=O)N[C@@H](Cc1ccccc1)C(=O)N[C@H](C(=O)N[C@@H](CCC(N)=O)C(=O)N[C@@H](Cc1c[nH]c2ccccc12)C(=O)N[C@@H](CC(C)C)C(=O)N[C@@H](CCS(C)(=O)=O)C(=O)N[C@@H](CC(=O)O)C(=O)N[C@H](C(N)=O)[C@@H](C)O)C(C)C [compound 29] (H-H[Aib]QGTFTSDYSKYLDARAAK([AEEA-AEEA-γGlu-C18 diacid])DFVQWL[Met(O2)]DT-NH2; N-terminus assumed)
EC50 [1]: 0.27 nM
EC50 [2]: 0.79 nM
hGCGR/hGLP1R (hTone) [2]: 2.93

CC(C)C[C@H](NC(=O)[C@H](Cc1ccc(O)cc1)NC(=O)[C@H](CCCCN)NC(=O)[C@H](CO)NC(=O)[C@H](Cc1ccc(O)cc1)NC(=O)[C@H](CC(=O)O)NC(=O)[C@H](CO)NC(=O)[C@@H](NC(=O)[C@H](Cc1ccccc1)NC(=O)[C@@H](NC(=O)CNC(=O)[C@H](CCC(N)=O)NC(=O)C(C)(C)NC(=O)[C@@H](N)Cc1c[nH]cn1)[C@@H](C)O)[C@@H](C)O)C(=O)N[C@@H](CC(=O)O)C(=O)N[C@@H](C)C(=O)N[C@@H](CCCNC(=N)N)C(=O)N[C@@H](C)C(=O)N[C@@H](C)C(=O)N[C@@H](CCC(N)=O)C(=O)N[C@@H](CCCCNC(=O)COCCOCCNC(=O)COCCOCCNC(=O)CC[C@H](NC(=O)CCCCCCCCCCCCCCC(=O)O)C(=O)O)C(=O)N[C@@H](Cc1ccccc1)C(=O)N[C@H](C(=O)N[C@@H](CCC(N)=O)C(=O)N[C@@H](Cc1c[nH]c2ccccc12)C(=O)N[C@@H](CC(C)C)C(=O)N[C@@H](CCS(C)(=O)=O)C(=O)N[C@@H](CC(=O)O)C(=O)N[C@H](C(N)=O)[C@@H](C)O)C(C)C [compound 20] (H-H[Aib]QGTFTSDYSKYLDARAAQK([AEEA-AEEA-γGlu-C16 diacid])FVQWL[Met(O2)]DT-NH2)
EC50 [1]: 0.03 nM
EC50 [2]: 0.03 nM
hGCGR/hGLP1R (hTone) [2]: 0.98
